The results in this text go back to patent US8440624B2, “Peptide whitening agents and cosmetic compositions comprising the same” (Chanel Parfums Beaute, priority 2007, dated 2013).

The subject of data set [1] is B16 melanoma cells. Nature of the data set: Effect on melanogenesis (melanin, absorption at 405 nm) boosted by NDP-MSH. The following applies: for inhibition of the synthesis of melanine: with NDP-MSH, 96 hours. It is filed as cell-based. The method, then:
(§1) B16 melanoma cells were cultured at 37° C. and 5% of CO2 in microplates with 96 wells in the presence of DMEM (Invitrogen, reference 11880028) containing 1 g/l of glucose without phenol red supplemented by 3 g/l of glucose (Sigma, reference G7021), 2 mM of L-glutamine, 50 UI/ml of penicillin, 50 μg/ml of […] (Invitrogen, reference 15070063) and 10% of fetal veal serum (Invitrogen, 10270098). After 24 h, the culture medium is replaced by a DMEM medium containing or not (control) a stable derivative of α-MSH, i.e. NDP-MSH (NLE-4-D-PHE-7-A Melanocytes Stimulating Hormone, Sigma, reference M-8764) and containing or not the peptide (compound 3 of example 1 or its N-palmitoyl derivative) according to the invention. Each peptide was tested with and without lipofectamine, (Invitrogen, reference 1538-100), an agent used to facilitate the peptide penetration. The melanocytes were then incubated for 72 hours at 37° C. and 5% of CO2.
The protocol used is the same as in example 3. The melanocytes were incubated for 96 hours at 37° C. and 5% of CO2. Kojic acid was used as a positive control.
At the end of the incubation period, the quantity of melanine was evaluated by measuring the absorption at 405 nm for each sample.

Data set [2] has as its system B16 melanoma cells. Briefly: Melanocyte intracellular penetration of peptide+FITC. The format is cell-based. The following applies: 72 hours. The protocol:
as §1
At the end of the incubation period, the medium was eliminated and cells were rinsed with a solution of PBS (phosphate buffer saline). The penetration of each peptide was analyzed by microscopy (In Cell Analyser® 100, GE Healthcare) with the objective ×20 or by Flux Cytometry after unsticking of cells by enzymatic treatment with trypsine (Flux FACSarray, Becton Dickinson).
The following table 1 illustrates the measurement of the penetration of the peptide+FITC (fluoresceine isothiocyanate) in B16 melanocytes at different peptide concentrations (4, 20, 100 and 500 μg/ml).

In data set [3] the test system is binding of AP-2 to the dileucine-based sorting signal containing tyrosinase. Nature of the data set: BIAcore competition: binding of AP-2 to tyrosinase tail peptide. Also on record: species or system human. The following applies: 200 nM adaptor, 10-1000 fold molar excess of peptide; FIG. 3. The method, then: (§2) Human tyrosinase also contains tyrosine residues in its cytoplasmic tail sequence, however they are not relevant with respect to adaptor binding. Instead, the tail contains a dileucine-based sorting signal that is bound by adaptors such as AP-2 and AP-3.
(§3) Binding between adaptors and the tyrosinase tail peptide was recorded in real-time using a BIAcore 3000 biosensor (GEHealthcare) based on surface plasmon resonance. The tyrosinase tail peptide (sequence: -[…]) (SEQ ID NO: 6) was immobilized on the surface of a CM5 sensor surface using thiol coupling and resulting in the immobilization of ≦300 RU of peptide. In brief, the CM5 surface was activated with EDC/NHS for 2 min at a flow-rate of 10 μl/min, followed by modification with PDEA for another 2 min. Subsequently, peptide was injected at a flow-rate of 5 μl/min for 1 min at a concentration of 5 μg/ml in 10 mM sodium acetate pH 4.5. The flow-rate was then adjusted to 20 μl/min and remaining active groups were blocked by injection of 50 mM cysteine, 1M NaCl. […]
(§4) For competition experiments, 200 nM adaptors were incubated with a 10-1000 fold molar excess of one of the 5 compound peptides for 10 min prior to injection. For comparison of adaptor binding to the immobilized tyrosinase tail, the RU values at the end of the injection (association period) and after the dissociation period were evaluated. […]
In general terms: In SPR one partner is held on a chip, and binding of the other changes the refractive index at the surface.

Data set [4] has as its system binding of AP-3 to the dileucine-based sorting signal containing tyrosinase. Nature of the data set: BIAcore competition: binding of AP-3 to tyrosinase tail peptide. Set-up: species or system human. To be noted: 200 nM adaptor, 10-1000 fold molar excess of peptide; FIG. 4. The method, then: as §2, §3, §4
The mark [5] stands for this setting: without lipofectamine, 20 μg/ml.
[6] abbreviates: without lipofectamine, 100 μg/ml.
Setting [7] is: without lipofectamine, 500 μg/ml.

Where a SMILES comes first, the peptide text is derived from it. Where no end group is shown, it is not given here. The star is where a group is joined. Palmitoyl = CCCCCCCCCCCCCCCC(=O)*

Consider `O=c1cc(CO)occ1O` [Kojic acid, reference compound], for which the “inhibition of the NDP-MSH induction of the synthesis of melanin” value with B16 melanoma cells [1] (tested between 36 and 80 μg/ml) is given as “sharply inhibited”. The “inhibition of the synthesis of melanine” value with B16 melanoma cells [1] (6.9 μg/ml) is reported as −13 % of inhibition; with B16 melanoma cells [1] (15.6 μg/ml) it was −7 % of inhibition; in the data set on B16 melanoma cells [1] (36 μg/ml), 33 % of inhibition; in the data set with B16 melanoma cells [1] (80 μg/ml), 75 % of inhibition.

Turning to `CCCCCCCCCCCCCCCC(=O)N[C@@H](C)C(=O)N[C@@H](CCC(=O)O)C(=O)N[C@@H](CC(=O)O)C(=O)N[C@@H](CCC(=O)O)C(=O)N1CCC[C@H]1C(=O)N[C@@H](CC(C)C)C(=O)N[C@@H](CC(C)C)C(=O)N[C@@H](CCSC)C(=O)N[C@@H](CCC(=O)O)C(=O)O` [N-palmitoyl derivative of compound 3] (Palmitoyl-AEDEPLLME-OH; C-terminus assumed), the “penetration of the peptide+FITC in B16 melanocytes” value (shortened to “penetration of the peptide+FITC”) in the data set with B16 melanoma cells [2] (with lipofectamine, 4 μg/ml) is reported as 765 % control; with B16 melanoma cells [2] (with lipofectamine, 20 μg/ml), 1495 % control; in the data set on B16 melanoma cells [2] (with lipofectamine, 100 μg/ml), 1331 % control; in the data set with B16 melanoma cells [2] (with lipofectamine, 500 μg/ml), 7726 % control; in the data set on B16 melanoma cells [2] (without lipofectamine, 4 μg/ml) it was 276 % control; in the data set with B16 melanoma cells [2] (setting [5]) it was 364 % control. Also, the “penetration of the peptide+FITC” value turned out to be 1486 % control in the data set with B16 melanoma cells [2] (setting [6]) and 982 % control with B16 melanoma cells [2] (setting [7]). Moreover, the “inhibition of the synthesis of melanine” value in the data set with B16 melanoma cells [1] (without lipofectamine, 0.5 μg/ml) was “ns *”; with B16 melanoma cells [1] (without lipofectamine, 1 μg/ml), 9 % of inhibition; in the data set on B16 melanoma cells [1] (without lipofectamine, 2.5 μg/ml) it was 10 % of inhibition; with B16 melanoma cells [1] (without lipofectamine, 5 μg/ml), 14 % of inhibition; with B16 melanoma cells [1] (without lipofectamine, 10 μg/ml), 20 % of inhibition.

In the case of AEDEPLLME [Compound 3, AEDEPLLME], the “penetration of the peptide+FITC” value in the data set on B16 melanoma cells [2] (with lipofectamine, 4 μg/ml) is reported as 166 % control; with B16 melanoma cells [2] (with lipofectamine, 20 μg/ml), 338 % control; in the data set with B16 melanoma cells [2] (with lipofectamine, 100 μg/ml), 1097 % control; in the data set with B16 melanoma cells [2] (with lipofectamine, 500 μg/ml), 4265 % control; in the data set on B16 melanoma cells [2] (without lipofectamine, 4 μg/ml) it was “ns *”; in the data set with B16 melanoma cells [2] (setting [5]) it was 263 % control. For the same compound, the figures for the “penetration of the peptide+FITC” value in the data set on B16 melanoma cells [2] (setting [6]) and in the data set with B16 melanoma cells [2] (setting [7]) were 533 % control and 1640 % control, respectively.

Turning to AEDEPLLVD [Compound 4], the “inhibition of the binding of AP-2 to tyrosinase” value in data set [3] is recorded as “most active”. Also, the “inhibition of the binding of AP-3 to tyrosinase” value in data set [4] is reported as “most active”.
